Among the data in ChEMBL document CHEMBL3244098, “Angiotensin II analogues. 13. Role of the hydroxyl group of position 4 tyrosine in pressor activity” (1979) are Activity values, retold here.

Numbered stars: 1 amine (or outer) side, 2 acyl side, 3 side chain; on linkers, the order of the positions; unused ones are H or OH. Square brackets hold non-standard residues; d marks the D form. Peptide text beside a SMILES is read from it. Phe(4-NO2) = N[C@@H](Cc1ccc([N+](=O)[O-])cc1)C(=O)O; Tyr(3,5-I2) = N[C@@H](Cc1cc(I)c(O)c(I)c1)C(=O)O; X3 = N#[N+]c1ccc(C[C@@H](N[*:1])C(=O)[*:2])cc1; X2 = Nc1c(I)cc(C[C@@H](N[*:1])C(=O)[*:2])cc1I; X4 = Cc1cc(C[C@@H](N[*:1])C(=O)[*:2])cc(C)c1O; X1 = Cc1cc(C[C@H](N[*:1])C(=O)[*:2])cc(C)c1O; Tyr(3-I) = N[C@@H](Cc1ccc(O)c(I)c1)C(=O)O; Phe(4-NH2) = Nc1ccc(C[C@H](N)C(=O)O)cc1; Sar = CNCC(=O)O

The species entered for one experiment is Rattus norvegicus. The experiment is described as follows: Pressor activity in nephrectomized, pentolinium treated rat relative to [Asn1,Val5]AII. The class given is functional.
`CC[C@H](C)[C@H](NC(=O)[C@H](Cc1ccccc1)NC(=O)[C@@H](NC(=O)[C@H](CCCNC(=N)N)NC(=O)[C@@H](N)CC(=O)O)C(C)C)C(=O)N[C@@H](Cc1cnc[nH]1)C(=O)N1CCC[C@H]1C(=O)N[C@@H](Cc1ccccc1)C(=O)O` (H-DRVFIHPF-OH) had an Activity of 10%. The same measure, in the same setting: with `CC[C@H](C)[C@H](NC(=O)[C@H](Cc1ccc(N)cc1)NC(=O)[C@@H](NC(=O)[C@H](CCCNC(=N)N)NC(=O)[C@@H](N)CC(N)=O)C(C)C)C(=O)N[C@@H](Cc1cnc[nH]1)C(=O)N1CCC[C@H]1C(=O)N[C@@H](Cc1ccccc1)C(=O)O` (H-NRV[Phe(4-NH2)]IHPF-OH) the figure was 24%. On the same count and under the same terms, the figure for `CC[C@H](C)[C@H](NC(=O)[C@H](Cc1ccc([N+](=O)[O-])cc1)NC(=O)[C@@H](NC(=O)[C@H](CCCNC(=N)N)NC(=O)[C@@H](N)CC(N)=O)C(C)C)C(=O)N[C@@H](Cc1cnc[nH]1)C(=O)N1CCC[C@H]1C(=O)N[C@@H](Cc1ccccc1)C(=O)O` (H-NRV[Phe(4-NO2)]IHPF-OH) is 0.1%; for `CC(C)[C@H](NC(=O)[C@H](CCCNC(=N)N)NC(=O)[C@@H](N)CC(N)=O)C(=O)N[C@@H](Cc1cc(I)c(O)c(I)c1)C(=O)N[C@H](C(=O)N[C@@H](Cc1cnc[nH]1)C(=O)N1CCC[C@H]1C(=O)N[C@@H](Cc1ccccc1)C(=O)O)C(C)C` (H-NRV[Tyr(3,5-I2)]VHPF-OH) it is 13%; for `CC(C)[C@H](NC(=O)[C@H](CCCNC(=N)N)NC(=O)[C@@H](N)CC(N)=O)C(=O)N[C@@H](Cc1ccc(O)c(I)c1)C(=O)N[C@H](C(=O)N[C@@H](Cc1cnc[nH]1)C(=O)N1CCC[C@H]1C(=O)N[C@@H](Cc1ccccc1)C(=O)O)C(C)C` (H-NRV[Tyr(3-I)]VHPF-OH) it is 33%. The same measure, in the same setting: with `CC[C@H](C)[C@H](NC(=O)[C@H](Cc1cc(C)c(O)c(C)c1)NC(=O)[C@@H](NC(=O)[C@H](CCCNC(=N)N)NC(=O)[C@@H](N)CC(N)=O)C(C)C)C(=O)N[C@@H](Cc1cnc[nH]1)C(=O)N1CCC[C@H]1C(=O)N[C@@H](Cc1ccccc1)C(=O)O` (H-NRV[X1]IHPF-OH) the figure was 2.2%. `CC[C@H](C)[C@H](NC(=O)[C@@H](Cc1cc(C)c(O)c(C)c1)NC(=O)[C@@H](NC(=O)[C@H](CCCNC(=N)N)NC(=O)[C@@H](N)CC(N)=O)C(C)C)C(=O)N[C@@H](Cc1cnc[nH]1)C(=O)N1CCC[C@H]1C(=O)N[C@@H](Cc1ccccc1)C(=O)O` (H-NRV[X4]IHPF-OH) gave an Activity of 1.4%.

A further experiment has as its target T1, Type-1 angiotensin II receptor (Oryctolagus cuniculus) (UniProt P34976).
T1 sequence (whole entry): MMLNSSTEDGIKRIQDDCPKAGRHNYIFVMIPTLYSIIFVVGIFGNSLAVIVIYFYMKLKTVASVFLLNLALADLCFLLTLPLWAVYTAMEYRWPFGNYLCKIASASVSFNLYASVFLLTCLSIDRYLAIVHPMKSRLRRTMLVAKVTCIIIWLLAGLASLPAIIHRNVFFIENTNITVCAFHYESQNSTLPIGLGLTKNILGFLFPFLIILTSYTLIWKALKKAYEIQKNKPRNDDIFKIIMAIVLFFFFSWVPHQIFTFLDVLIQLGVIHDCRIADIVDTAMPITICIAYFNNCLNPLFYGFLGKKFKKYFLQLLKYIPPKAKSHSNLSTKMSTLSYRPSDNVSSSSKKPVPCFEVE
The experiment is described as follows: Binding affinity to angiotensin 2 receptor in rabbit aorta.
`CNCC(=O)N[C@@H](CCCNC(=N)N)C(=O)N[C@H](C(=O)N[C@H](Cc1ccc(N)cc1)C(=O)N[C@H](C(=O)N[C@@H](Cc1cnc[nH]1)C(=O)N1CCC[C@H]1C(=O)N[C@@H](Cc1ccccc1)C(=O)O)C(C)C)C(C)C`: the Activity was found to be 15%. Molecule `CNCC(=O)N[C@@H](CCCNC(=N)N)C(=O)N[C@H](C(=O)N[C@H](Cc1ccc(N=[N+]=[N-])cc1)C(=O)N[C@H](C(=O)N[C@@H](Cc1cnc[nH]1)C(=O)N1CCC[C@H]1C(=O)N[C@@H](Cc1ccccc1)C(=O)O)C(C)C)C(C)C` came in with an Activity of 0.26%. In turn, `CNCC(=O)N[C@@H](CCCNC(=N)N)C(=O)N[C@H](C(=O)N[C@H](Cc1cc(I)c(N)c(I)c1)C(=O)N[C@H](C(=O)N[C@@H](Cc1cnc[nH]1)C(=O)N1CCC[C@H]1C(=O)N[C@@H](Cc1ccccc1)C(=O)O)C(C)C)C(C)C` (H-[Sar]RV[X2]VHPF-OH) yielded an Activity of 2.7%. On the same count and under the same terms, the figure for `CNCC(=O)N[C@@H](CCCNC(=N)N)C(=O)N[C@H](C(=O)N[C@H](Cc1ccc([N+]#N)cc1)C(=O)N[C@H](C(=O)N[C@@H](Cc1cnc[nH]1)C(=O)N1CCC[C@H]1C(=O)N[C@@H](Cc1ccccc1)C(=O)O)C(C)C)C(C)C` (H-[Sar]RV[X3]VHPF-OH) is 0.66%.
